From patent US20250059139A1, “COMPOUNDS FOR TREATMENT OF CANCER” (THE JOHNS HOPKINS UNIVERSITY, priority 2021, published 2025)
Like-named read-outs stand apart in the source and are kept apart here.

Experiments:
[1] = target: T1, Human Aryl Hydrocarbon Receptor (AHR) (Homo sapiens, UniProt P35869); assay: Human AHR reporter assay (cell-based  luciferase reporter gene assay)
T1 construct: purchased Indigo Biosciences IB06001
T1 sequence (P35869 11-848): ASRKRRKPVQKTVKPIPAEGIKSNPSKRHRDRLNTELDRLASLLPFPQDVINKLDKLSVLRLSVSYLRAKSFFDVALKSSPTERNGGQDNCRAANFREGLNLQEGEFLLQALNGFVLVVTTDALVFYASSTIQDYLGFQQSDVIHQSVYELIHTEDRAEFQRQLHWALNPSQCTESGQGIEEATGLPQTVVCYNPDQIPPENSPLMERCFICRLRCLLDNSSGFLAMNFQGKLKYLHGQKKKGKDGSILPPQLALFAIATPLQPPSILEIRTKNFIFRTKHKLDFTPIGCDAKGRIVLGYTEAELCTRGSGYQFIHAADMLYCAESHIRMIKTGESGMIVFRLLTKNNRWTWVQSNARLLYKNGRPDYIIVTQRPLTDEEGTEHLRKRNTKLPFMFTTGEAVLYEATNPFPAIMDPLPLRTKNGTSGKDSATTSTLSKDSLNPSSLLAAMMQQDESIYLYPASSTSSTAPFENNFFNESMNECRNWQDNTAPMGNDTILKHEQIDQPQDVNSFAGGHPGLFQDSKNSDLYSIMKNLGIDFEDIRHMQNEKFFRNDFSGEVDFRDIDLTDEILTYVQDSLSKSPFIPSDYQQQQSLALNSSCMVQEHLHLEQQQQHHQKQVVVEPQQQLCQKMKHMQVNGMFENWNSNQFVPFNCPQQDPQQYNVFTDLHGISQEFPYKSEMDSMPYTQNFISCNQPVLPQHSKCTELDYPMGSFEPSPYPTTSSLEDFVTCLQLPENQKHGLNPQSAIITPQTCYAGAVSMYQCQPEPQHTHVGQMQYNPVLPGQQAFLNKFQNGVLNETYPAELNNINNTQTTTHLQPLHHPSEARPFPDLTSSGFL
Excerpt: AHR Agonist Assay. Human Aryl Hydrocarbon Receptor (AHR) Reporter Assay System [Indigo Biosciences (State College, Pa) Cat #IB06001] was used as per the manufacturer's protocol.
Thus, a series of quinoline-3-carboxamide analogs were synthesized focusing upon adduct changes at the aniline-N. These analogs were synthesized as described in Example 1, and were initially screened for their AHR agonist activity using the in vitro human cell-based ARE-driven luciferase reporter gene assay (Table 3).

fl-HDAC4 = target: T2, fl-HDAC4 (Homo sapiens, UniProt P56524); assay: HDAC4 enzymatic assay with Lys(Tfa)-AMC substrate; format: biochemical
T2 construct: Full-length (fl) [A.A. 1-1082] recombinant human histone deacetylase 4 (rhHDAC4) protein; FLAG (N); GST (given as 'with or without'); made in house; host or cells: HEK293-T
T2 sequence (P56524 whole entry): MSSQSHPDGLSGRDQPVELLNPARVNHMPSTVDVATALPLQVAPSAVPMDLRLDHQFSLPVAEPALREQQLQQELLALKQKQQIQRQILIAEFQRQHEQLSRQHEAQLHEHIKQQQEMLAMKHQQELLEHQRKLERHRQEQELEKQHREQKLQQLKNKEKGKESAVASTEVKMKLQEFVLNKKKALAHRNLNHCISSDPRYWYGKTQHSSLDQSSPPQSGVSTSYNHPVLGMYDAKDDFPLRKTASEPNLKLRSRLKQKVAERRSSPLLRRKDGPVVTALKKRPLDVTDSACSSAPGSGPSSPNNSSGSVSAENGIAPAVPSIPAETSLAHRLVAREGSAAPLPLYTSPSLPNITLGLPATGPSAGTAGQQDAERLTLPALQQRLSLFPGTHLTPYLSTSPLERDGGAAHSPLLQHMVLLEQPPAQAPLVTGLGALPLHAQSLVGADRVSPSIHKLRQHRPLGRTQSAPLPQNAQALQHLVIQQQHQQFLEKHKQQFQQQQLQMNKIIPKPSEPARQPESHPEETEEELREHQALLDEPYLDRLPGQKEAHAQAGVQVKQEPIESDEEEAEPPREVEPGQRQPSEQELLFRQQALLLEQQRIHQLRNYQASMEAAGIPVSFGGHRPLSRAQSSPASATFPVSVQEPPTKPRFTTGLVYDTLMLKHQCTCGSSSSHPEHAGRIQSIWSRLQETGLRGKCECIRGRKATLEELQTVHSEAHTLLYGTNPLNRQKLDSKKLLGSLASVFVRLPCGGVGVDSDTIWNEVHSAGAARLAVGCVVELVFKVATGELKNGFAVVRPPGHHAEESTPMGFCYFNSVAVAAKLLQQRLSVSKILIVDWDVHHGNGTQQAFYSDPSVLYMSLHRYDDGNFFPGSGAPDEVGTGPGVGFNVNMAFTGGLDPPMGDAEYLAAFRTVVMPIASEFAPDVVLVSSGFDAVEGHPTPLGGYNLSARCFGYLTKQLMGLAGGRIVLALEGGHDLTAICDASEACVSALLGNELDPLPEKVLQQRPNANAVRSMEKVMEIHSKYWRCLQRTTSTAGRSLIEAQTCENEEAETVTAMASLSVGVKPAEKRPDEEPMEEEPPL
Protocol: HDAC4 Enzymatic Assay. HDAC4 activity of the various recombinant forms used through these studies was assayed using the small non-protein Lys(Tfa)-AMC as described previously (Bottomley et al. J. Biol. Chem. 2008, 283:26694-26704). The specificity of this assay is documented via its inhibition by a small molecule trifluoroacetylthiophene-trifluoromethylketone derivative (TFT-PIP) described previously (id.).
Thus, TasQ's inhibition of HDAC4/NCoR1 formation involves only its binding to HDAC4. To resolve whether such TasQ binding involves the ZCD vs. ZRD in HDAC4, we took advantage of the fact that while HDAC4 has only marginal deacetylase activity against acetylated lysine-containing proteins, it can deacetylate a small non-protein trifluoroacetamide substrate (a.k.a., Lys(Tfa)-AMC). This reaction is inhibited by a small molecule trifluoroacetylthiophene-trifluoromethylketone derivative [a.k.a., TFT-PIP (FIG. 16)] due to its binding to the catalytic Zn^2+ in the ZCD, which locks the ZRD in the open conformation (Bottomley 2008).

S100A9 = S100A9 (Homo sapiens, UniProt P06702); conditions: Kallberg et al. 2012; cited from earlier work
Chain of S100A9 (P06702 whole entry, species assumed): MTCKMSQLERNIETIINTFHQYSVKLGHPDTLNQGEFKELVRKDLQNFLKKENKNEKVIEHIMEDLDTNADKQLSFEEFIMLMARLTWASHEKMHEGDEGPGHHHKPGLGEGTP

[2] = target: T3, fl-R681A/R798A double mutant HDAC4 / fl-NCoR1 (Homo sapiens, UniProt P56524, R681A/R798A); assay: SPR inhibition of fl-R681A/R798A double mutant HDAC4 binding to fl-NCoR1; conditions: plateau at 2 μM TasQ
T3 construct: Full-length (fl) [A.A. 1-1082] recombinant human histone deacetylase 4 (rhHDAC4) protein; FLAG (N); GST (given as 'with or without'); host or cells: HEK293-T (HDAC4)
T3 sequence (P56524 whole entry R681A/R798A): as the sequence (P56524 whole entry) above, with R681A, R798A counted along it
Protocol: (§1) Surface Plasmon Resonance (SPR) Binding Analysis. SPR analysis was performed on the Biacore 3000™ system using CM5 sensor chips, certified buffers (HBS-P—10 mM HEPES, 0.15 M NaCl, pH 7.4, containing 0.005% v/v Surfactant P; HBS-EP-HBS-P with 3 mM EDTA) and reagents for immobilization and surface regeneration from Biacore, GE Healthcare, Uppsala Sweden. Evaluation of sensorgrams was performed using the BIA-evaluation Software version 4.1 and GraphPad Prism 4. Buffer of protein reagents were changed to HBS-P on Zeba spin desalting columns (Thermo Scientific) prior to being used in SPR analysis (Isaacs 2013).
C. Inhibition of HDAC4-NCoR1 interaction by TasQ. The interaction between HDAC4 and NCoR1 was studied either by injecting NCoR over immobilized HDAC4 or with an alternative orientation where HDAC4 was passed over a surface with covalently coupled NCoR1. Whether TasQ can inhibit the formation of the functional HDAC4-NCoR1 complex was tested by pre-incubation with NCoR1 or HDAC4.
These additional analyses again documented high-affinity binding of the wild-type fl-HDAC4 protein to fl-NCoR1 with such binding being competed by pre-incubation with TasQ in solution (FIG. 21).

fl-NCoR1 = target: T4, fl-NCoR1 (Homo sapiens, UniProt O75376); assay: SPR binding of TasQ to immobilized fl-NCoR1; conditions: compound in solution
T4 construct: (N-terminal FLAG-tagged; AA 1-2440); FLAG (N); purchased Abcam ab82239
T4 sequence (O75376 whole entry, the tested form may be a part): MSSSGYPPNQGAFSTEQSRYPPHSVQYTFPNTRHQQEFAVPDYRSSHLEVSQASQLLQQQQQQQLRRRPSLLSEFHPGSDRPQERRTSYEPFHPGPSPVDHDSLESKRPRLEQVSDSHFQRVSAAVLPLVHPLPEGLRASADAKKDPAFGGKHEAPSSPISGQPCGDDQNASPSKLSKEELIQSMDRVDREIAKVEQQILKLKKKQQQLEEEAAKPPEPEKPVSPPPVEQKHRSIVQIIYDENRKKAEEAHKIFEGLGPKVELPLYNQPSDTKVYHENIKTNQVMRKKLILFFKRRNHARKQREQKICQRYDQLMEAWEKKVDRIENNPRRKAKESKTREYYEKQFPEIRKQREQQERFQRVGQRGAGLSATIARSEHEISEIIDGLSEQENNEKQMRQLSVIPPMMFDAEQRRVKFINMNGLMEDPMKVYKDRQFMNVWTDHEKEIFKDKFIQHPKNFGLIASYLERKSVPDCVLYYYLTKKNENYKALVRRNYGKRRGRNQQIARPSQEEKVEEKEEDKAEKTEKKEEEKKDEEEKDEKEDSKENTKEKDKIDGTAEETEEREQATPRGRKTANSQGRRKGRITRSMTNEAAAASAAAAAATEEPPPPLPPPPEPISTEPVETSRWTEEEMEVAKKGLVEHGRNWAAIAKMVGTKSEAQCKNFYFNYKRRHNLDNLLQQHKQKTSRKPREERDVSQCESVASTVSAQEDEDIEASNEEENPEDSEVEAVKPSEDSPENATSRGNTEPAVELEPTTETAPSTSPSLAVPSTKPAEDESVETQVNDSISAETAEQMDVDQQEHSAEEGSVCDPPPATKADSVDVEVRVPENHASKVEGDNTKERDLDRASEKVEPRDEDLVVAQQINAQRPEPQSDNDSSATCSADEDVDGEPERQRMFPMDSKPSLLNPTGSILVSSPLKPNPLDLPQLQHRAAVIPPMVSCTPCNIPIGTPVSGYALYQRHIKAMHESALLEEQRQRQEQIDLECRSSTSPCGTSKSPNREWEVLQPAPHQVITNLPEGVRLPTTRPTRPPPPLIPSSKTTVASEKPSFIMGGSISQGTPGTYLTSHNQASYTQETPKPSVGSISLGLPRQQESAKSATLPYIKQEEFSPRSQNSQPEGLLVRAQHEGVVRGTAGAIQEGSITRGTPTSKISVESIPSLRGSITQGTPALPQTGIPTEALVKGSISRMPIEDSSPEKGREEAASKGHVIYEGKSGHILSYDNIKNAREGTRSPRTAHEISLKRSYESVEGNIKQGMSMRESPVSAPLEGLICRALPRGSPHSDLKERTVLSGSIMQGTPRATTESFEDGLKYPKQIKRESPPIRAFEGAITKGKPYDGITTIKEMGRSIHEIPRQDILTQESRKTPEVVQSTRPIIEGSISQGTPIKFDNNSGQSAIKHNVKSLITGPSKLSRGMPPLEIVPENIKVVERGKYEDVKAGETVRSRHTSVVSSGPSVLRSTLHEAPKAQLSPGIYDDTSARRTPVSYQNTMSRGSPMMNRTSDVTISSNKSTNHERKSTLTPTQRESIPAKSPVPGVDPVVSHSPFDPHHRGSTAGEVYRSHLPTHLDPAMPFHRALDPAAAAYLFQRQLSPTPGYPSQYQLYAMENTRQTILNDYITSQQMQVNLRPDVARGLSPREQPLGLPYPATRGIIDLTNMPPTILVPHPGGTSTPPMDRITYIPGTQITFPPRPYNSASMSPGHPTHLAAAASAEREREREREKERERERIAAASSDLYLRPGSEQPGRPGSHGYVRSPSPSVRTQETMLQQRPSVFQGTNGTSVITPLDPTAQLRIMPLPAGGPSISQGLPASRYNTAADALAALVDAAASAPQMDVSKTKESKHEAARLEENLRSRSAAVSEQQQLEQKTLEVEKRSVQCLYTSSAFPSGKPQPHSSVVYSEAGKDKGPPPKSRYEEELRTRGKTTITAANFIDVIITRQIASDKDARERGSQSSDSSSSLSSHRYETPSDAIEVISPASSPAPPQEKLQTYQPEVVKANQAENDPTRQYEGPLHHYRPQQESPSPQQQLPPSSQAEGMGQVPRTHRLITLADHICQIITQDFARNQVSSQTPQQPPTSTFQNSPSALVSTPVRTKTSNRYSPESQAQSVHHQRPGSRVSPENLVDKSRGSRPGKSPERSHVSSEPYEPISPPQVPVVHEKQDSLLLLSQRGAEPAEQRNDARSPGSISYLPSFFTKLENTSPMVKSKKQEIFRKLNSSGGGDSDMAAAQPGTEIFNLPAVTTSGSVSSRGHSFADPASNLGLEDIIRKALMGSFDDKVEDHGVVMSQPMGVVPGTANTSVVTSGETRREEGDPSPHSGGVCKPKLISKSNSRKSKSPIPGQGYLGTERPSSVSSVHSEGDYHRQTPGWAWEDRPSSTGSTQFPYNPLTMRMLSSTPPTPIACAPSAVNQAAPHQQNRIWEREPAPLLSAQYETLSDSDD
Protocol: as §1
B. Binding of TasQ to immobilized HDAC4 and NCoR1. Different variants of HDAC4 (full-length wild-type and mutant forms and the truncated protein) and full-length NCoR1 were immobilized on a CM5 chip using random amine coupling. Briefly, proteins were dissolved in 10 mM sodium acetate buffer at pH 5.0 or 5.5 and immobilized to the aimed level using the standard protocol from GE Healthcare. Serially diluted TasQ in HBS-P buffer with 10 or 20 μM Zn was injected (for 2 or 3 min at a flow rate of 30 μl/min) either directly or after a 1st injection of 1 mM DTT to reduce cysteines in the zinc conformation site in HDAC4. Regeneration was made with a short pulse of HBS-EP.
Thus, TasQ's inhibition of HDAC4/NCoR1 formation involves only its binding to HDAC4. […]

Structure (SMILES)	EC50 ([1]; luciferase reporter gene assay, read-out: AHR agonist EC50)	EC50 ([1]; n = 4 independent assays/analog, read-out: AHR Agonist Response [EC50] (nM +/−SD))	effect on enzymatic activity of fl-HDAC4 (fl-HDAC4)	affinity to S100A9 (S100A9)	inhibition at 2 µM [2]	binding to immobilized fl-NCoR1 protein (fl-NCoR1)
COc1cccc2c1c(O)c(C(=O)N(c1ccc(C(F)(F)F)cc1)C1CCCCC1)c(=O)n2C [ESATA-20]	10000 nM	10200 nM				
COc1cccc2c1c(O)c(C(=O)N(C)c1ccc(C(F)(F)F)cc1)c(=O)n2C [TasQ, Tasquinimod]			did not inhibit	nanomolar (nM) affinity	< 35%	no detectable binding
